From patent US20100178259A1, “REDUCING FIBROSIS USING MATRIX METALLOPROTEINASE INHIBITORS” (The Regents of The University of Michigan, priority 2009, published 2010)
Entries after “also recorded” stand apart in the source; their conditions may differ.

Columns and labels:
[1] = system: HRS/J hairless mice skin exposed to UV irradiation; experiment: UV irradiation sunburn/scarring in hairless mice, topical treatment, skin cross-section histology; type: in vivo, mouse; conditions: UV 200-400 mJ/square cm, topical 1% MMI270 in 70% ethanol (95%) and 30% propylene glycol daily after UV exposure, compared to untreated irradiated skin (FIG. 2)
Experimental: The following experiments illustrate embodiments of the present technology. Experimental mice (HRS/J hairless mice) are treated with UV irradiation at a dosage that results in sunburn and consequent scarring of the skin. UV exposure includes daily exposure (Mon-Fri), or 3× per week (Mon, Wed, Fri), at 200-400 mJ/square cm, until scarring occurs, typically after 2-3 weeks. The UVB/A2 source is FS tubes filtered with Kodacel to remove wavelengths below 290 nm. Non-irradiated mice serve as non-wounded controls.
FIG. 1 is a photograph of a tissue cross-section of non-irradiated mouse skin. The outer surface of the skin includes a layer 110 of dead skin cells overtop the epidermis 120. Located beneath the epidermis 120, is a region comprising extracellular matrix 130, which includes collagen and other proteins. A layer of fat cells 140 underlies the extracellular matrix 130 and is followed by muscle 150. Hair follicles 160 can be seen embedded within the extracellular matrix 130 region.
FIG. 2 is a photograph of a tissue cross-section of mouse skin that was exposed to UV irradiation to cause a burn and that was not treated with MMP inhibitor. Morphology of the skin changes in response to the burn wound which can subsequently form into a scar. The outer skin surface and layer 210 of dead skin cells overlies a thickened epidermis 220 followed by a thickened region of extracellular matrix 230. […]

MMP-1 = target: T1, MMP-1 (Homo sapiens, UniProt P03956); conditions: in vitro; cited from earlier work
T1 sequence (P03956 100-469): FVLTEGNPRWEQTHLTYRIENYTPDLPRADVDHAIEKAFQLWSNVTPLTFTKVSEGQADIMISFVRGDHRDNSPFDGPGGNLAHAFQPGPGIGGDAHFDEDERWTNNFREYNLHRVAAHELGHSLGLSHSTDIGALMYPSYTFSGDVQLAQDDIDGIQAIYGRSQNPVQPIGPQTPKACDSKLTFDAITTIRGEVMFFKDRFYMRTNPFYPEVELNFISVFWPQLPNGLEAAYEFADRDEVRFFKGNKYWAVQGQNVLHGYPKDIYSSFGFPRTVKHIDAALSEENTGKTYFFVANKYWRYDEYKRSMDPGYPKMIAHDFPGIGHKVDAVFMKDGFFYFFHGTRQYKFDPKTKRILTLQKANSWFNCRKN

MMP-2 = target: T2, MMP-2 (Homo sapiens, UniProt P08253); conditions: in vitro; cited from earlier work
T2 sequence (P08253 110-660): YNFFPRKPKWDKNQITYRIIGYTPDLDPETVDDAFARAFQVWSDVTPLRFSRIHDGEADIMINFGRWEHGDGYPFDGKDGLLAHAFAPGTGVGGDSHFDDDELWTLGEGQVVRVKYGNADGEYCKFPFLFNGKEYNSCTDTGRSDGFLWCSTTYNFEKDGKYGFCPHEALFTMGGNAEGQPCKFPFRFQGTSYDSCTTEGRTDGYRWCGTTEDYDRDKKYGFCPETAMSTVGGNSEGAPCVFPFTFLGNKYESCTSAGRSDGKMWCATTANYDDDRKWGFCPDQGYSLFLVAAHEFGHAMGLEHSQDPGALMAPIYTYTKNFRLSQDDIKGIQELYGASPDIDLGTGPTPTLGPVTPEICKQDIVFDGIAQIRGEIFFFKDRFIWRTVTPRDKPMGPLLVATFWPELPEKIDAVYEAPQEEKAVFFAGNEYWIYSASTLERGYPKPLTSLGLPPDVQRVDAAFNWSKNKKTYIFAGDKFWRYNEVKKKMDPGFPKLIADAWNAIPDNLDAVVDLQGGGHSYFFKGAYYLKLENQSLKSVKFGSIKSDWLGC

MMP-3 = MMP-3 (Homo sapiens, UniProt P08254); conditions: in vitro; cited from earlier work
MMP-3, sequence (P08254 100-477, species assumed): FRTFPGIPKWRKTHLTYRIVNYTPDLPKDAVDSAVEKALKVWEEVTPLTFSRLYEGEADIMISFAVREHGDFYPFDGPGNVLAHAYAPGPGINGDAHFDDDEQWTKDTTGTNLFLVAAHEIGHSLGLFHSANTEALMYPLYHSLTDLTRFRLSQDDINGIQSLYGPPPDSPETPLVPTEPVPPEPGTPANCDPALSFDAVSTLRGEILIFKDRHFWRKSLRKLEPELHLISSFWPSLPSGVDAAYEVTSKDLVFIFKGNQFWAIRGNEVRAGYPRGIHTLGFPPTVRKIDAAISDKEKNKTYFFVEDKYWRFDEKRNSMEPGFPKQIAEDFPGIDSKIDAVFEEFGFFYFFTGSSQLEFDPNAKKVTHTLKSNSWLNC

MMP-9 = MMP-9 (Homo sapiens, UniProt P14780); conditions: in vitro; cited from earlier work
MMP-9, sequence (P14780 94-707, species assumed): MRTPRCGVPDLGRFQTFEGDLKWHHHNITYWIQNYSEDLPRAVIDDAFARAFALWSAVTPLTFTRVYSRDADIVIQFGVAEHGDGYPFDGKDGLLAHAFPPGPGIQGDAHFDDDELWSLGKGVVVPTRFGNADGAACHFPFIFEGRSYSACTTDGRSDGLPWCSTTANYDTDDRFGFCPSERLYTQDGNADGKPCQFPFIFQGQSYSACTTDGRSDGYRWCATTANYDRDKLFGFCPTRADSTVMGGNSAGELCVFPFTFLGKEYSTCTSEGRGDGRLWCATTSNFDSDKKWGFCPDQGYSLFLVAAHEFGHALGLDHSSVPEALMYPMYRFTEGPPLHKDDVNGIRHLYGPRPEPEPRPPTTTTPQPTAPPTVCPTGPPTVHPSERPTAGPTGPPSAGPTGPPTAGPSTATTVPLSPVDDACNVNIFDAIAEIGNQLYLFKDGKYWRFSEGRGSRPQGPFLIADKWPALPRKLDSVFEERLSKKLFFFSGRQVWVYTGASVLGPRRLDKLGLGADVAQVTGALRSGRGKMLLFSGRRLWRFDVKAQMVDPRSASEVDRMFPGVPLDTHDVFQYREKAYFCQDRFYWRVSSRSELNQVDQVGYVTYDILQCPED

In the case of `COc1ccc(S(=O)(=O)N(Cc2cccnc2)[C@@H](C(=O)NO)C(C)C)cc1` [MMI270, N-hydroxy-2(R)-[[4-methoxybenzenesulfonyl]-(3-picolyl)amino]-3-methylbutanamide], the “expansion and thickening of the epidermis and extracellular matrix” value [1] is listed as “less expansion and thickening of the epidermis and extracellular matrix; also recorded: decrease in thickness of the extracellular matrix”, the “concentration inhibiting MMP-1 activity” value (MMP-1) is listed as “nanomolar concentrations” and the “concentration inhibiting MMP-2 activity” value (MMP-2) is listed as “nanomolar concentrations”. For the same compound, the “concentration inhibiting MMP-3 activity” value (MMP-3) was “nanomolar concentrations” and the “concentration inhibiting MMP-9 activity” value (MMP-9) was “nanomolar concentrations”.
